The source of these data is patent publication US20260263442A1, “METHOD FOR TREATING L-DOPA-INDUCED DYSKINESIA USING BEFIRADOL” (Neurolixis, Inc., priority 2023, published 2026).

One series deals with 6-OH-DA lesioned rats. Particulars: cited from earlier work.
For series [1] the following is noted: in vivo; cited from earlier work.
Series [2] has as its system anxiety and depression in PD patients with LID. As to the kind of experiment: Hospital Anxiety Depression Scale (HADS), Phase 2a study. In kind it is in vivo, human. The source says:
The HADS is used to determine the levels of anxiety and depression that a person is experiencing. The questionnaire consists of 7 items related to anxiety and 7 related to depression. Each item on the questionnaires is scored from 0-3, which means that a person can score between 0 and 21 for either anxiety or depression.

In series [3] the test system is pain in PD patients with LID. Nature of the series: King's Parkinson's Disease Pain Scale (KPPS), Phase 2a study. In kind it is in vivo, human. The source says: The KPPS is a rater-interview-based scale conducted with the patient and caregiver (if available). It is a 14-item scale covering 7 domains of pain: • Musculoskeletal pain • Chronic pain • Fluctuation-related pain • Nocturnal pain • Orofacial pain • Edema/swelling; discoloration • Radicular pain Each item is scored by severity (0-3; none to very severe) multiplied by frequency (0-4; never to all the time), for an item sub score of 0-12, resulting in a total score from 0 to 168. Ratings are based on the previous month, or in the case of this study, the intervening period since the previous clinic visit (about 3 weeks). Treatment effects would be analyzed as change from baseline for total score and for individual pain domains.

The subject of series [4] is overactive bladder in PD patients with LID. Nature of the series: ICIQ Overactive Bladder Module (ICIQ-OAB), Phase 2a study. Type of series: in vivo, human. An excerpt:
The ICIQ-OAB provides a brief and robust measure to assess the impact of symptoms of overactive bladder on quality of life and outcome of treatment. It is a 4-item patient reported outcome covering 4 domains of bladder function: frequency, nocturia, urgency, and urge urinary incontinence. Each item is scored by frequency of 0-4, for a total score of 0-16. Ratings would be based on the previous month or since the last clinic visit. Efficacy would be assessed as change from the baseline total score.

Where [5] appears, read: Baseline, Per Protocol Set, n = 15.
Setting [6] is: change from baseline at day 28 (end of up-titration period), Per Protocol Set, n = 15.
[7] abbreviates: change from baseline at day 42 (end of stable dosing period), Per Protocol Set, n = 15.

On to `Cc1ccc(CNCC2(F)CCN(C(=O)c3ccc(F)c(Cl)c3)CC2)nc1` [NLX-112], for which the Rotation behavior result in the series on 6-OH-DA lesioned rats (6-OH-DA lesioned rats) was “increases rotation behavior”. In addition, in the series on 6-OH-DA lesioned rats (parkinsonian rat model of LID), the “Dopamine surge following L-DOPA administration” value is recorded as “blunted” and the “Striatal 5-HT release” value is recorded as “inhibited striatal 5-HT release”. Also, the “Antidyskinetic efficacy against L-DOPA-induced dyskinesia on chronic administration” value with 6-OH-DA lesioned rats (rat, 2-week treatment period) is reported as “did maintain its antidyskinetic efficacy”. Also, the “Blood concentrations that could be associated with side effects, such as dizziness” value in series [1] is “higher than 15 ng/ml”. Besides, in series [2] (setting [5]), the “HADS (Anxiety), Baseline, mean (S.D.)” value is reported as 4.5 (2.5) and the “HADS (Depression), Baseline, mean (S.D.)” value is 3.7 (2.7). Further, the “Anxiety and depression (HADS), effect” value in series [2] (Days 28 or 42) was “no consistent statistically significant effect”. Moreover, in series [2] (setting [6]), the “HADS (Anxiety), Δ D28, mean (S.D.)” value is given as −0.5 (2.5) and the “HADS (Depression), Δ D28, mean (S.D.)” value is −0.4 (1.7). The “HADS (Depression), Δ D42, mean (S.D.)” value in series [2] (setting [7]) is given as −0.6 (1.9). Besides, the “KPPS, Baseline, mean (S.D.)” value in series [3] (setting [5]) was 16.0 (9.9). In addition, the “KPPS total score, change from baseline” value in series [3] (Day 42) is “statistically significant improvement”. Besides, the “KPPS, Δ D28, mean (S.D.)” value in series [3] (change from baseline at day 28 (end of up-titration period), Per Protocol Set, n = 15, **p < 0.01 vs baseline (LMM)) is −4.6 (7.5)**. For the same compound, the “KPPS, Δ D42, mean (S.D.)” value in series [3] (change from baseline at day 42 (end of stable dosing period), Per Protocol Set, n = 15, **p < 0.01 vs baseline (LMM)) is given as −4.8 (7.8)**. The “Incontinence (ICIQ-OAB), effect” value in series [4] (Days 28 or 42) was “no consistent statistically significant effect”. In addition, in series [4] (setting [6]), the “ICIQ-OAB, Δ D28, mean (S.D.)” value is reported as 0.7 (6.5). Also, in series [4] (setting [7]), the “ICIQ-OAB, Δ D42, mean (S.D.)” value is given as −0.8 (8.02).
